According to ChEMBL document CHEMBL1201862, “PubChem BioAssay data set” (2004):
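Each compound was tested at five concentrations against cells in 96-well plates for 48 hours. GI50 = concentration required for 50% inhibition of growth.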 Calls of active or inactive are those of the source. No stated cut-off is given here; in the data, active = GI50 up to about 1.1 µM and inactive = higher.

Columns and labels:
Assay in all cases: NCI tumour cell line growth inhibition, 48 h
[1] = test system: NCI/ADR-RES
[2] = test system: UACC-62
[3] = test system: M14
[4] = test system: MDA-MB-231
[5] = test system: SR
[6] = test system: HCT-116
[7] = test system: COLO 205
[8] = test system: 786-0
[9] = test system: SNB-19
[10] = test system: TK-10
[11] = test system: SK-OV-3
[12] = test system: UACC-257
[13] = test system: HOP-92
[14] = test system: SF-539
[15] = test system: OVCAR-5
[16] = test system: OVCAR-3
[17] = test system: LOX IMVI
[18] = test system: MDA-MB-435
[19] = test system: EKVX
[20] = test system: SNB-75

Measured: GI50

O=C(O)CN1CCNCCN(CC(=O)O)CC1
inactive: [1] 2.44 µM | [2] 12.6 µM | [3] 25.7 µM | [4] > 34 µM | [5] 3.84 µM | [6] 3.36 µM | [7] 2.01 µM | [8] 5.48 µM | [9] > 100 µM | [10] 8.2 µM | [11] 38.4 µM | [12] 15.2 µM | [13] 8.38 µM | [14] 13 µM | [15] > 22.1 µM | [16] 6.49 µM | [17] 17.3 µM | [18] 11.6 µM | [19] 12.5 µM | [20] 12.3 µM

Nc1nc(N)c(Cn2ccnc2)c(O)n1
inactive: [1] > 100 µM | [2] > 100 µM | [3] > 100 µM | [4] > 100 µM | [5] > 100 µM | [6] > 100 µM | [7] > 100 µM | [8] > 100 µM | [9] > 100 µM | [10] > 100 µM | [11] > 100 µM | [12] > 100 µM | [13] > 100 µM | [14] > 100 µM | [15] > 100 µM | [16] > 100 µM | [17] > 100 µM | [18] > 100 µM | [19] > 100 µM | [20] > 100 µM

Cc1cccc(/N=N/c2ccc(O)c(CN(C)C)c2)c1
inactive: [1] 16.9 µM | [2] 8.95 µM | [3] 27.4 µM | [4] 5.6 µM | [5] 43.1 µM | [6] 20.5 µM | [7] 13.2 µM | [8] 18.9 µM | [9] 41.9 µM | [10] 22.9 µM | [11] 41.7 µM | [12] 17.5 µM | [13] 6.17 µM | [14] 18.2 µM | [15] 33.8 µM | [16] 17.2 µM | [17] 5.41 µM | [18] 15.2 µM | [19] 20.3 µM | [20] 29 µM

Cc1cc(NS(=O)(=O)c2ccc(NC(=O)c3cccc4c(NNc5ccc(S(N)(=O)=O)cc5)c5ccccc5nc34)cc2)no1
inactive: [1] > 100 µM | [2] 43.4 µM | [3] 67.1 µM | [4] 54.5 µM | [5] 35.8 µM | [6] 33.2 µM | [7] 45.1 µM | [8] 54.6 µM | [9] 60.4 µM | [10] 83.2 µM | [11] 36.3 µM | [12] > 100 µM | [13] 22.7 µM | [14] > 100 µM | [15] 39.6 µM | [16] 26.7 µM | [17] 30.5 µM | [18] 75.7 µM | [19] 33.4 µM | [20] 31.7 µM

Oc1cc(-n2cccn2)c(O)cc1-n1cccn1
inactive: [1] 29.4 µM | [2] 38.9 µM | [3] 27 µM | [4] 21.9 µM | [5] 12.6 µM | [6] 26.2 µM | [7] 18.1 µM | [8] 16.6 µM | [9] > 70.1 µM | [10] 26.8 µM | [11] > 100 µM | [12] 32.1 µM | [13] 21 µM | [14] 62.1 µM | [15] 53.1 µM | [16] 19.1 µM | [17] 21 µM | [18] 17.5 µM | [19] > 69.2 µM | [20] > 69.2 µM

Cc1c(-c2cnccn2)ssc1=S [OLTIPRAZ]
inactive: [1] > 100 µM | [2] 76.2 µM | [3] > 100 µM | [4] 63.2 µM | [5] 68.9 µM | [6] 54.3 µM | [7] > 100 µM | [8] 40.4 µM | [9] 68.1 µM | [10] 62.7 µM | [11] 35.9 µM | [12] 24.5 µM | [13] 26.8 µM | [14] 63.1 µM | [15] > 100 µM | [16] 99.3 µM | [17] 63 µM | [18] > 100 µM | [19] 33.2 µM | [20] 18.5 µM
